In ChEMBL document CHEMBL1125816, “[123I]-2 beta-carbomethoxy-3 beta-(4-iodophenyl)tropane: high-affinity SPECT radiotracer of monoamine reuptake sites in brain” (J Med Chem, 1991):

Molecular target: Sodium-dependent serotonin transporter (Rattus norvegicus, UniProt P31652)
Assay: Compound was tested for binding affinity to Serotonin transporter sites in homogenates prepared from rat cortical membranes using [3H]paroxetine as radioligand

Sodium-dependent serotonin transporter, sequence (P31652 whole entry): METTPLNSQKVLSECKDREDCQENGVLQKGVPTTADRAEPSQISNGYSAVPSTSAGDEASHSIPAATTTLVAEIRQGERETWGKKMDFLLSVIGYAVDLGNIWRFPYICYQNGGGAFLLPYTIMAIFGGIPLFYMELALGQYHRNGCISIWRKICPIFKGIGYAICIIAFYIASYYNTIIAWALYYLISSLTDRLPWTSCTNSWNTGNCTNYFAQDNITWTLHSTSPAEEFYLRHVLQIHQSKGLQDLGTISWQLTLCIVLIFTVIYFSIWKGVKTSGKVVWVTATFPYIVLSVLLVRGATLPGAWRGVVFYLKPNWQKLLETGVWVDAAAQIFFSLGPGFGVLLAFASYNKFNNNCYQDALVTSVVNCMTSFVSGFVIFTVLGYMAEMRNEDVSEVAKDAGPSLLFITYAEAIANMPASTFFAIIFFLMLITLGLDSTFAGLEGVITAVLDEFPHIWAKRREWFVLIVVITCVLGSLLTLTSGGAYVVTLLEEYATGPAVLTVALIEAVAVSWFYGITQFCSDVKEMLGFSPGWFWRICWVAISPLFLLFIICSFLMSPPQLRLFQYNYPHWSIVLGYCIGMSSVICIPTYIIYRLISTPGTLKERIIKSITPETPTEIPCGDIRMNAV

Structure (SMILES) | IC50 [µM]
COC(=O)[C@H]1[C@@H](c2ccc(F)cc2)C[C@H]2CC[C@H]1N2C | 0.479
COC(=O)[C@@H]1C2CC[C@H](C[C@@H]1c1ccc(I)cc1)N2C | 0.00378
